In brackets after ≈: the same amount, converted by molar mass.
How the values were obtained:
[1] = Inhibition of Mycobacterium avium DHFR using 7, 8 dihydrofolate as substrate incubated for 1 hr by plate reader assay
[2] = Inhibition of Mycobacterium abscessus DHFR using 7, 8 dihydrofolate as substrate incubated for 1 hr by plate reader assay; design: species or system Mycobacteroides abscessus
[3] = Metabolic stability in human hepatocytes assessed as intrinsic clearance at 0.5 uM measured upto 120 mins in presence of NADPH by UPLC-MS/MS analysis; format: ADME, cell-based, Hepatocyte; details: 2 h
[4] = Clearance in mouse; format: ADME, organism-based; details: in vivo
[5] = Metabolic stability in human liver microsomes assessed as intrinsic clearance at 0.5 uM measured upto 30 mins in presence of NADPH by UPLC-MS/MS analysis; format: ADME, Microsome; details: 0.5 h
[6] = Volume of distribution in mouse; format: ADME, organism-based; details: in vivo
[7] = Solubility of compound in PBS at pH 7.4 incubated for 24 hrs by UPLC analysis; format: physicochemical; details: for solubility: buffer, pH 7.4, 24 h
[8] = Apparent permeability in MDCK-II cells incubated for 1 hr by LC-MS/MS method; format: ADME, cell-based, Canis lupus familiaris; details: dog
Dihydrofolate reductase = molecular target: T1, Dihydrofolate reductase (Homo sapiens, UniProt P00374); test: Inhibition of human DHFR using 7, 8 dihydrofolate as substrate incubated for 1 hr by plate reader assay; format: toxicity
T1 sequence (P00374 whole entry): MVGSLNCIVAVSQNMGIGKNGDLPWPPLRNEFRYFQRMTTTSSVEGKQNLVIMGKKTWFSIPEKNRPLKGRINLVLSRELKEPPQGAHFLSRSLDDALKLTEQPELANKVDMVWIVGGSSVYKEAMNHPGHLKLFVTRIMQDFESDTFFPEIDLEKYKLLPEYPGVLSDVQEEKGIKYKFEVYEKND

[9] = Half-life in mouse; format: ADME, organism-based; details: in vivo
[10] = Metabolic stability in mouse hepatocytes assessed as intrinsic clearance at 0.5 uM measured upto 120 mins in presence of NADPH by UPLC-MS/MS analysis; format: ADME, cell-based, Hepatocyte; details: 2 h
[11] = system: Mycobacteroides abscessus; test: Antibacterial activity against Mycobacterium abscessus ATCC 19977 incubated for 2 days by resazurin microtiter assay; format: functional; details: ATCC 19977, 48 h, time 2 day
[12] = AUClast in BALB/c mouse at 3 mg/kg, po measured upto 24 hrs by UPLC/MS-MS analysis; format: ADME, organism-based; details: in vivo
[13] = Unbound fraction in mouse plasma; format: ADME, cell-free
[14] = AUClast in BALB/c mouse at 1 mg/kg, iv measured upto 24 hrs by UPLC/MS-MS analysis; format: ADME, organism-based; details: in vivo
[15] = Half-life in BALB/c mouse at 1 mg/kg, iv measured upto 24 hrs by UPLC/MS-MS analysis; format: ADME, organism-based; details: in vivo
[16] = Observed volume of distribution at steady state in BALB/c mouse at 1 mg/kg, iv measured upto 24 hrs by UPLC/MS-MS analysis; format: ADME, organism-based; details: in vivo
[17] = Oral bioavailability in BALB/c mouse at 3 mg/kg measured upto 24 hrs by UPLC/MS-MS analysis; format: ADME, organism-based; details: in vivo
[18] = Lipophilicity, logP of compound; format: physicochemical; details: octanol/water
[19] = Extrapolated AUC in BALB/c mouse at 1 mg/kg, iv measured upto 24 hrs by UPLC/MS-MS analysis; format: ADME, organism-based; details: in vivo
[20] = Observed clearance in BALB/c mouse at 1 mg/kg, iv measured upto 24 hrs by UPLC/MS-MS analysis; format: ADME, organism-based; details: in vivo
HepG2 = test: Cytotoxicity against human HepG2 cells assessed as viable cells at 100 uM incubated for 72 hrs by resazurin dye based plate reader assay; format: toxicity, cell-based; details: hepg2, 72 h
[21] = Tmax in BALB/c mouse at 3 mg/kg, po measured upto 24 hrs by UPLC/MS-MS analysis; format: ADME, organism-based; details: in vivo
[22] = AUCinfinity in BALB/c mouse at 1 mg/kg, iv measured upto 24 hrs by UPLC/MS-MS analysis; format: ADME, organism-based; details: in vivo
[23] = Cmax in BALB/c mouse at 3 mg/kg, po measured upto 24 hrs by UPLC/MS-MS analysis; format: ADME, organism-based; details: in vivo

SMILES | IC50 [1] | IC50 [2] | IC50 (Dihydrofolate reductase) | MIC [11] | other results
CCc1nc(N)nc(N)c1OCCCOc1ccccc1CCC(=O)O | 4.3 nM | 0.8 nM | 120 nM | 10.1 µg/mL (≈ 28 µM) | intrinsic clearance [3]: < 0.66 mL/min/g; clearance [4]: 43.6 mL/min/kg; intrinsic clearance [5]: < 0.4 mL/min/g; Vd [6]: 2.5 L/kg; solubility [7]: 233 µM (≈ 84 µg/mL); Papp [8]: 3 ×10⁻⁶ cm/s; half-life [9]: 39 min; CLH [10]: < 0.76 mL/min/g
COc1ccc(-c2nc(N)nc(N)c2OCCCOc2ccccc2CCC(=O)O)cc1 | 5.2 nM | 17 nM | 700 nM | 0.2 µg/mL (≈ 0.456 µM) | intrinsic clearance [3]: < 0.66 mL/min/g; intrinsic clearance [5]: < 0.4 mL/min/g; solubility [7]: 67 µM (≈ 29.4 µg/mL); Papp [8]: 4.1 ×10⁻⁶ cm/s; CLH [10]: 0.59 mL/min/g
COc1ccccc1-c1nc(N)nc(N)c1OCCCOc1ccccc1CCC(=O)O | 210 nM | 210 nM | > 5000 nM | – | –
CCCCCc1nc(N)nc(N)c1OCCCOc1ccccc1CCC(=O)O | 4.5 nM | 8.3 nM | 430 nM | 0.6 µg/mL (≈ 1.49 µM) | –
Nc1nc(N)c(OCCCOc2ccccc2CCC(=O)O)c(-c2ccccc2C(F)(F)F)n1 | 28 nM | 42 nM | > 5000 nM | 3.6 µg/mL (≈ 7.56 µM) | –
Nc1ncc(OCCCOc2ccccc2CCC(=O)O)c(N)n1 | 220 nM | 990 nM | 9700 nM | – | –
Nc1nc(N)c(OCCCOc2ccccc2CCC(=O)O)c(-c2cccc(C(F)(F)F)c2)n1 | 1900 nM | 320 nM | > 5000 nM | – | –
COc1cccc(-c2nc(N)nc(N)c2OCCCOc2ccccc2CCC(=O)O)c1 | 60 nM | 13 nM | > 5000 nM | 5.6 µg/mL (≈ 12.8 µM) | –
NCCCc1nc(N)nc(N)c1OCCCOc1ccccc1CCC(=O)O | 240 nM | 45 nM | > 5000 nM | 12.9 µg/mL (≈ 33.1 µM) | –
COc1nc(N)nc(N)c1OCCCOc1ccccc1CCC(=O)O | > 5000 nM | > 5000 nM | > 5000 nM | – | –
CCCOc1nc(N)nc(N)c1OCCCOc1ccccc1CCC(=O)O | > 5000 nM | > 5000 nM | > 5000 nM | – | –
CCCCOc1nc(N)nc(N)c1OCCCOc1ccccc1CCC(=O)O | > 5000 nM | > 5000 nM | > 5000 nM | – | –
Nc1nc(N)c(OCCCOc2ccccc2CCC(=O)O)c(C2CCNCC2)n1 | 63 nM | 30 nM | > 5000 nM | 6.2 µg/mL (≈ 14.9 µM) | –
Nc1nc(N)c(OCCCOc2ccccc2CCC(=O)O)c(-c2ccncc2)n1 | 17 nM | 77 nM | > 5000 nM | 0.6 µg/mL (≈ 1.47 µM) | –
NCC[C@H](O)C(=O)N[C@@H]1C[C@H](N)[C@@H](O[C@H]2O[C@H](CN)[C@@H](O)[C@H](O)[C@H]2O)[C@H](O)[C@H]1O[C@H]1O[C@H](CO)[C@@H](O)[C@H](N)[C@H]1O [AMIKACIN] | – | – | – | 1.7 µg/mL (≈ 2.9 µM) | –
Nc1nc(N)c(OCCCOc2ccccc2CCC(=O)O)c(-c2ccccc2)n1 | 7 nM | 17 nM | > 5000 nM | 0.3 µg/mL (≈ 0.734 µM) | intrinsic clearance [3]: < 0.66 mL/min/g; intrinsic clearance [5]: 0.43 mL/min/g; solubility at 24 h ([7]; PBS, pH 7.4): 52 µM (≈ 21.2 µg/mL); Papp [8]: 5.4 ×10⁻⁶ cm/s; CLH [10]: 2.2 mL/min/g
Nc1nc(N)c(OCCCOc2ccccc2CCC(=O)O)c(CCCCO)n1 | 5 nM | 4.9 nM | 460 nM | 0.1 µg/mL (≈ 0.247 µM) | intrinsic clearance [3]: < 0.66 mL/min/g; intrinsic clearance [5]: < 0.4 mL/min/g; solubility [7]: 227 µM (≈ 91.8 µg/mL); Papp [8]: 0.8 ×10⁻⁶ cm/s; CLH [10]: < 0.76 mL/min/g
CCCc1nc(N)nc(N)c1OCCCOc1ccccc1CCC(=O)O | 3.8 nM | 0.86 nM | 7.2 nM | – | –
Nc1nc(N)c(OCCCOc2ccccc2CCC(=O)O)c(C2CCCCC2)n1 | 6.3 nM | 1.1 nM | 2100 nM | 0.1 µg/mL (≈ 0.241 µM) | AUClast [12]: 49232 ng·min/mL; intrinsic clearance [3]: < 0.66 mL/min/g; Fu [13]: ~ 0.02; intrinsic clearance [5]: 0.54 mL/min/g; solubility [7]: 43 µM (≈ 17.8 µg/mL); AUClast [14]: 40507 ng·min/mL; t1/2 [15]: 30 min; Vdss [16]: 0.9 L/kg; F [17]: 41%; Papp [8]: 3.2 ×10⁻⁶ cm/s; logP [18]: 3.6; %AUCextra [19]: 5%; clearance [20]: 23 mL/min/kg; Activity (HepG2): > 60%; Tmax [21]: 30 min; CLH [10]: 2.2 mL/min/g; AUC [22]: 42750 ng·min/mL; Cmax [23]: 279 ng/mL

— ChEMBL document CHEMBL6092213, “Rational Exploration of 2,4-Diaminopyrimidines as DHFR Inhibitors Active against Mycobacterium abscessus and Mycobacterium avium, Two Emerging Human Pathogens” (J Med Chem, 2024)
